Results from patent publication US20070213257A1, “COMPOSITIONS AND METHODS FOR COMPLEXES OF NUCLEIC ACIDS AND PEPTIDES” (Nastech Pharmaceutical Company Inc., priority 2005, published 2007).
Where two headings read alike, the source gives them in different places.

Tests used:
[1] = target: LC20 siRNA/PN73 complex (Homo sapiens, UniProt P62807)
Method: (§1) In this example, size exclusion chromatography (SEC) coupled with an ultraviolet detector (UV 260nm) and static laser light scattering (LS) detector was used to characterize the physical properties of the LC20 siRNA/PN73 peptide complex in the presence or absence of the organic salt. In addition, the phosphate/nitrogen (P/N) charge ratio for LC20 siRNA/PN73 was calculated.
LC20 siRNA/PN73 aggregation was characterized in the presence or absence of NMDG-glutamate by SEC-UV/LS.

[2] = target: PN73 (Homo sapiens, UniProt P62807); assay: SEC-UV/LS: effect of organic salt on PN73 aggregation; format: physicochemical; settings: 100 mM salt, without LC20 siRNA
Method: as §1
PN73 in monomeric form is 4 kiloDaltons (kDA); however an intrinsic property of this peptide is to aggregate and form large complexes in solution. An initial study was performed to analyze the physical properties of PN73, without LC20 siRNA, in the presence and absence of 100 mM NMDG-glutamate salt or 9% sorbitol (no salt environment). […] In contrast, in the presence of 100 mM NMDG-glutamate salt, two distinct adjacent UV traces were observed indicating two distinct species of PN73 were present. […] Next, the ability of NMDG-glutamate and other organic salts to reduced PN73 aggregation in the presence of LC20 siRNA was characterized by SEC-UV/LS.

Chain of LC20 siRNA/PN73 complex (P62807 13-48 limits assumed, one chain of several): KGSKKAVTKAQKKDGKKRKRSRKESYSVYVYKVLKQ
Chain of PN73 (P62807 13-48): as the sequence (P62807 13-48 limits assumed, one chain of several) above

**Q.** Which “stabilization of LC20 siRNA/PN73 complex in solution” value (“stabilization” for short) ([1]; 1 mM salt) does the source give for “trimethylethanolamine (Choline) [choline chloride]” here?
**A.** The value was “may not be suitable as a stabilizer”.

**Q.** What about the “stabilization” value ([1]; 10 mM salt) of the same compound?
**A.** Its value is “may not be suitable as a stabilizer”.

**Q.** What about the “stabilization” value ([1]; 100 mM salt) of the same compound?
**A.** Its value is “may not be suitable as a stabilizer”.

**Q.** For `N=C(N)NCCC[C@H](N)C(=O)O` [arginine glutamate, arginine], which “stabilization” value ([1]; 1 mM salt) is on record?
**A.** The value was “effective stabilizer”.

**Q.** What about the “stabilization” value ([1]; 10 mM salt) of the same compound?
**A.** Its value is “effective stabilizer”.

**Q.** What about the “stabilization” value ([1]; 100 mM salt) of the same compound?
**A.** Its value is “effective stabilizer”.

**Q.** And the “stabilization” value ([1]; 150 mM salt)?
**A.** The value was “not an effective stabilizer”.

**Q.** How did the “stabilization” value ([1]; 1 mM salt) turn out when `CNC[C@H](O)[C@@H](O)[C@H](O)[C@H](O)CO.N[C@@H](CCC(=O)O)C(=O)O` [NMDG-glutamate, N-methyl-D-glucamine (NMDG)] was run?
**A.** The value was “effective stabilizer”.

**Q.** What about the “stabilization” value ([1]; 10 mM salt) of the same compound?
**A.** The value was “effective stabilizer”.

**Q.** What about the “stabilization” value ([1]; 100 mM salt) of the same compound?
**A.** The value was “effective stabilizer”.

**Q.** And the “effect on PN73 aggregation” value [2]?
**A.** Its value is “reduces PN73 aggregation significantly”.

**Q.** For `NCCCNCCCCNCCCN` [spermine acetate, spermine], which “stabilization” value ([1]; 1 mM salt) is on record?
**A.** Its value is “effective LC20 siRNA/PN73 stabilizer”.

**Q.** And the “stabilization” value ([1]; 10 mM salt)?
**A.** Its value is “effective LC20 siRNA/PN73 stabilizer”.

**Q.** And the “stabilization” value ([1]; 100 mM salt)?
**A.** Its value is “dissociates the LC20 siRNA/PN73 peptide complex”.
